IC50 and inhibition data for 27 molecules are collected here from patent US5686454A, “Camphorcarbonyl” (Merck & Co., Inc., priority 1996, dated 1997).

The first assay has as its target T1, uterine OT receptors (Rattus norvegicus, UniProt P70536).
T1 construct: crude membrane preparation of uteri; from tissue; host or cells: uterus of DES-treated rats, crude membranes
T1 sequence (P70536 1-388): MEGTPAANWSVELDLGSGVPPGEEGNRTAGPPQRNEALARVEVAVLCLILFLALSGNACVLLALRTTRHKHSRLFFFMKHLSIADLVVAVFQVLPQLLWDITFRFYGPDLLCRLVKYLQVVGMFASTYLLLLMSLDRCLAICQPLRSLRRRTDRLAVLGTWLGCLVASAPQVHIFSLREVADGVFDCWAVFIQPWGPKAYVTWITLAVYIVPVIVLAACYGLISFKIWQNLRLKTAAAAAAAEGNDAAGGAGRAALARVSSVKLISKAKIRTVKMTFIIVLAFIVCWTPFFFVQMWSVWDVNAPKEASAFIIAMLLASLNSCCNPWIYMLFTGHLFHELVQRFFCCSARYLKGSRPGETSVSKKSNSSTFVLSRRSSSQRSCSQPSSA
Briefly: Radioligand binding: competition of [^3 H]oxytocin binding to rat uterine membranes. To be noted: 1 nM [^3 H]OT, rat uterus membranes, 60 minutes, 22° C., pH 7.4; read-out: IC50. From the text:
RADIOGLIGAND BINDING ASSAYS
The high affinity binding of [^3 H]
Regarding `Cc1ccccc1N1CCN(S(=O)(=O)CC23CCC(CC2O)C3(C)C)C(C)C1` (stereo not drawn) [Example 68, 1-((7,7-Dimethyl-2-exo-hydroxy-bicyclo(2.2.1)heptan-1-yl)methanesulfonyl)-4-(2-methylphenyl)-2-methyl-piperazine], the IC50 came out at 460 nM.
For the molecule `Cc1ccccc1N1CCN(S(=O)(=O)CC23CCC(CC2NC(=O)[C@H](CCS(C)(=O)=O)NC(=O)OC(C)(C)C)C3(C)C)CC1` (stereo partly drawn) [Example 71, 1-((7,7-Dimethyl-2-endo-(2S-(tert-butyloxycarbonyl-amino)-4-(methylsulfonyl)-butyramido)-bicyclo(2.2.1)-heptan-1-yl)methanesulfonyl)-4-(2-methylphenyl)-piperazine], the concentration for half-maximal inhibition (IC50) amounted to 7.7 nM.
Still for that read-out and setting: to `Cc1ccccc1N1CCN(S(=O)(=O)CC23CCC(CC2NC(=O)[C@@H](N)CCS(C)(=O)=O)C3(C)C)CC1` (stereo partly drawn) [Example 72, 1-((7,7-Dimethyl-2-endo-(2S-amino-4-(methylsulfonyl)-butyramido)bicyclo(2.2.1)heptan-1-yl)methanesulfonyl)-4-(2-methylphenyl)piperazine] belongs 1.2 nM.
The same measure, in the same setting: to `Cc1ccccc1N1CCN(S(=O)(=O)CC23CCC(CC2NC(=O)[C@H](CCS(C)(=O)=O)NC(=O)Cc2c[nH]cn2)C3(C)C)CC1` (stereo partly drawn) [Example 73, 1-((7,7-Dimethyl-2-endo-(2S-(imidazol-4-ylacetyl-amino)-4-(methylsulfonyl)butyramido)-bicyclo(2.2.1)-heptan-1-yl)methanesulfonyl)-4-(2-methylphenyl)-piperazine] belongs 5.4 nM; to `Cc1ccccc1N1CCN(S(=O)(=O)CC23CCC(CC2N(C)C(=O)OCc2ccccc2)C3(C)C)CC1` (stereo not drawn) [Example 76, 1-((7,7-Dimethyl-2-endo-methyl(benzyloxy-carbonyl)amino-bicyclo(2.2.1)-heptan-1-yl)methanesulfonyl)4-(2-methylphenyl)piperazine], 6.3 nM.
In the case of `Cc1ccccc1N1CCN(S(=O)(=O)CC23CCC(CC2N(C)C(=O)[C@@H](N)CCS(C)(=O)=O)C3(C)C)CC1` (stereo partly drawn) [Example 77, 1-((7,7-dimethyl-2-endo-methyl(2S-amino-4-(methylsulfonyl)butanoyl)amino-bicyclo(2.2.1)heptan-1-yl)methanesulfonyl)-4-(2-methylphenyl)-piperazine], the half-maximal inhibitory concentration (IC50) was 9.2 nM.
The same measure, in the same setting: to `Cc1ccccc1N1CCN(S(=O)(=O)CC23CCC(CC2N(C)C(=O)[C@H](CCS(C)(=O)=O)N(C)C)C3(C)C)CC1` (stereo partly drawn) [Example 78, 1-((7,7-Dimethyl-2-endo-methyl(2S-dimethylamino-4-(methylsulfonyl)butanoyl)amino-bicyclo(2.2.1)heptan-1-yl)methanesulfonyl)-4-(2-methylphenyl)-piperazine] belongs 110 nM; to `Cc1ccccc1N1CCN(S(=O)(=O)CC23CCC(CC2NC(=O)Cc2c[nH]cn2)C3(C)C)CC1` (stereo not drawn) [Example 79], 26 nM.
Regarding `Cc1ccccc1N1CCN(S(=O)(=O)C[C@]23CC[C@H](C[C@@H]2NC(=O)C(C)c2c[nH]cn2)C3(C)C)CC1` (stereo partly drawn) [Example 80, 1-((7,7-Dimethyl-2-endo-(2-(4-imidazolyl)propanoyl)-amino-bicyclo(2.2.1)heptan-1-yl)methanesulfonyl)-4-(2-methylphenyl)piperazine], the IC50 came out at 12 nM.
Turning to `COC(=O)CCN1CCC[C@H]1C(=O)NCC(C)C1(O)CC2CCC1(CS(=O)(=O)N1CCN(c3ccccc3C)CC1)C2(C)C` (stereo partly drawn) [Example 81, 1-((7,7-Dimethyl-2-exo-hydroxy-2-endo-2-(1-(1--N -(methoxycarbonylethyl)prolyl)amino)propylbicyclo-(2.2.1)heptan-1-yl)methanesulfonyl)-4-(2-methyl-phenyl)piperazine], the concentration for half-maximal inhibition (IC50) is 20 nM.
`Cc1ccccc1N1CCN(S(=O)(=O)CC23CCC(CC2(O)C(C)CNC(=O)[C@@H]2CCCN2CCC(=O)O)C3(C)C)CC1` (stereo partly drawn) [Example 82, 1-((7,7-Dimethyl-2-exo-hydroxy-2-endo-2-(1-(1-N-(carboxyethyl)prolyl)amino)propyl-bicyclo(2.2.1)-heptan-1-yl)methanesulfonyl)-4-(2-methylphenyl)piperazine]: the half-inhibitory concentration (IC50) was found to be 15 nM.
As for `Cc1ccccc1N1CCN(S(=O)(=O)CC23CCC(CC2(O)C(C)CNC(=O)C2CCCNC2)C3(C)C)CC1` (stereo not drawn) [Example 83, 1-((7,7-Dimethyl-2-exo-hydroxy-2-endo-2-(1-(3-piperidinylcarbonyl)amino)propyl-bicyclo(2.2.1)heptan-1-yl)methanesulfonyl)-4-(2-methylphenyl)piperazine], the IC50 came out at 30 nM.
On to `COC(=O)CCN1CCCC(C(=O)NCC(C)C2(O)CC3CCC2(CS(=O)(=O)N2CCN(c4ccccc4C)CC2)C3(C)C)C1` (stereo not drawn) [Example 84], for which the 50% inhibitory concentration (IC50) is 25 nM.
Take `CCOC(=O)CN1CCCC(C(=O)NCC(C)C2(O)CC3CCC2(CS(=O)(=O)N2CCN(c4ccccc4C)CC2)C3(C)C)C1` (stereo not drawn) [Example 86, 1-((7,7-Dimethyl-2-exo-hydroxy-2-endo-2-(1-(3-(1-ethoxycarbonylmethyl)piperidinylcar-bonyl)amino)propyl-bicyclo(2.2.1)heptan-1-yl)methanesulfonyl)-4-(2-methylphenyl)piperazine]: the IC50 worked out at 38 nM.
Regarding `CCOC(=O)CN1CCC[C@H]1C(=O)NCC(C)C1(O)CC2CCC1(CS(=O)(=O)N1CCN(c3ccccc3C)CC1)C2(C)C` (stereo partly drawn) [Example 88, 1-((7,7-Dimethyl-2-exo-hydroxy-2-endo-2-(1-(1-N -(ethoxycarboxymethyl)-prolyl)amino)propyl-bicyclo-(2.2.1)heptan-1-yl)methanesulfonyl)-4-(2-methylphenyl)piperazine], the half-inhibitory concentration (IC50) came to 28 nM.
On to `Cc1ccccc1N1CCN(S(=O)(=O)CC23CCC(CC2(O)C(C)CNC(=O)[C@@H]2CCCN2CC(=O)O)C3(C)C)CC1` (stereo partly drawn) [Example 89], for which the IC50 came to 14 nM.
For `Cc1ccccc1N1CCN(S(=O)(=O)CC23CCC(CC2(O)C(C)CNC(=O)C2CCNCC2)C3(C)C)CC1` (stereo not drawn) [Example 90], the IC50 was found to be 30 nM.

Still in this assay, the particulars now being: read-out: % inhibition at 100 nM.
Regarding `Cc1ccccc1N1CCN(S(=O)(=O)CC23CCC(CC2(O)C(C)CNCc2ccncc2)C3(C)C)CC1` (stereo not drawn) [Example 63, 1-((7,7-Dimethyl-2-exo-hydroxy-2-endo-2-(1-(4-pyridinyl)methylamino)-propyl-bicyclo(2.2.1)heptan-1-yl)methanesulfonyl)-4-(2-methylphenyl)-piperazine], the inhibition at 0.1 µM was found to be 35%.
With `Cc1ccccc1N1CCN(S(=O)(=O)CC23CCC(CC2N)C3(C)C)CC1` (stereo not drawn) [Example 70, 1-((7,7-Dimethyl-2-endo-amino-bicyclo(2.2.1)heptan-1-yl)methanesulfonyl)-4-(2-methylphenyl)-piperazine], the inhibition at 0.1 µM turned out to be 91%.
As to `Cc1ccccc1N1CCN(S(=O)(=O)CC23CCC(CC2(O)C(C)CNC(=O)C2CCCN(CCC(=O)O)C2)C3(C)C)CC1` (stereo not drawn) [Example 85], the inhibition at 0.1 µM was 66%.

Staying with this assay, now noted: read-out: % inhibition at 110 nM.
Consider `Cc1ccccc1N1CCN(S(=O)(=O)CC23CCC(CC2(O)C(C)CNC(=O)C2CCCN(CC(=O)O)C2)C3(C)C)CC1` (stereo not drawn) [Example 87, 1-((7,7-Dimethyl-2-exo-hydroxy-2-endo-2-(1-(3-(1-carboxymethyl)piperidinylcarbonyl)amino)-propylbicyclo(2.2.1)heptan-1-yl)methanesulfonyl)-4-(2-methylphenyl)piperazine], for which the inhibition at […] came to 66%.

The same assay, now with this note: read-out: % inhibition at 1000 nM.
In the case of `CCOC(=O)C(CC=C1CC2CCC1(CS(=O)(=O)N1CCN(c3ccccc3C)CC1)C2(C)C)(NC(C)=O)C(=O)OCC` (stereo not drawn) [Example 64, 1-((7,7-Dimethyl-2-(3-acetamido-3,3'-di(ethoxycarbonyl))propylidine-bicyclo(2.2.1)heptan-1-yl)methanesulfonyl)-4-(2-methylphenyl)piperazine], the inhibition at 1 µM was determined as 78%.
On the same count and under the same terms, the same measure for `Cc1ccccc1N1CCN(S(=O)(=O)CC23CCC(CC2=O)C3(C)C)C(C)C1=O` (stereo not drawn) [Example 67, 1-((7,7-Dimethyl-2-oxo-bicyclo(2.2.1)heptan-1-yl)-methanesulfonyl)-4-(2-methylphenyl)-2-methyl-3-piperazinone]: 37%.
For `Cc1ccccc1N1CCN(S(=O)(=O)CC23CCC(CC2NC(=O)[C@H](CCS(C)(=O)=O)N(C)C)C3(C)C)CC1` (stereo partly drawn) [Example 74, 1-((7,7-Dimethyl-2-endo-(2S-(dimethylamino)-4-(methylsulfonyl)butyramido)-bicyclo(2.2.1)heptan-1-yl)methanesulfonyl)-4-(2-methylphenyl)piperazine], the inhibition at 1 µM was 54%.
On the same count and under the same terms, to `Cc1ccccc1N1CCN(S(=O)(=O)CC23CCC(CC2NC(=O)OCc2ccccc2)C3(C)C)CC1` (stereo not drawn) [Example 75, 1-((7,7-Dimethyl-2-endo-benzyloxycarbonylamino-bicyclo(2.2.1)heptan-1-yl)methanesulfonyl)-4-(2-methyl-phenyl)-piperazine] belongs 35%.

The same assay, now with this note: read-out: % inhibition at 10,000 nM.
In the case of `CC(=O)NC(CC=C1CC2CCC1(CS(=O)(=O)N1CCN(c3ccccc3C)CC1)C2(C)C)C(=O)O` (stereo not drawn) [Example 65, 1-((7,7-Dimethyl-2-(3-acetamido-3-carboxy)propylidine-bicyclo(2.2.1)heptan-1-1 methanesulfonyl)-4-2-methylphenyl)piperazine], the inhibition at 10 µM stood at 16%.
On the same count and under the same terms, to `Cc1ccccc1N1CCN(S(=O)(=O)CC23CCC(CC2=O)C3(C)C)CC1=O` (stereo not drawn) [Example 66, 1-((7,7-Dimethyl-2-oxo-bicyclo(2.2.1)heptan-1-yl)methanesulfonyl)-4-(2-methylphenyl)-3-piperazinone] belongs 5%.
